Experiments:
Assay type in all cases: biochemical
[1] = molecular target: PI3Kγ (Homo sapiens, UniProt P48736); assay: PI3K-gamma fluorescence polarization assay; settings: read-out: PI3Kγ Median IC50
[2] = molecular target: mTOR (Homo sapiens, UniProt P42345); assay: mTOR enzyme assay (DELFIA format, His6-S6K substrate); settings: read-out: mTOR Kinase Median IC50
[3] = molecular target: PI3Kα (Homo sapiens, UniProt P42336); assay: PI3K-alpha fluorescence polarization assay; settings: read-out: PI3Kα Median IC50
Chain of PI3Kα (P42336 whole entry, species assumed): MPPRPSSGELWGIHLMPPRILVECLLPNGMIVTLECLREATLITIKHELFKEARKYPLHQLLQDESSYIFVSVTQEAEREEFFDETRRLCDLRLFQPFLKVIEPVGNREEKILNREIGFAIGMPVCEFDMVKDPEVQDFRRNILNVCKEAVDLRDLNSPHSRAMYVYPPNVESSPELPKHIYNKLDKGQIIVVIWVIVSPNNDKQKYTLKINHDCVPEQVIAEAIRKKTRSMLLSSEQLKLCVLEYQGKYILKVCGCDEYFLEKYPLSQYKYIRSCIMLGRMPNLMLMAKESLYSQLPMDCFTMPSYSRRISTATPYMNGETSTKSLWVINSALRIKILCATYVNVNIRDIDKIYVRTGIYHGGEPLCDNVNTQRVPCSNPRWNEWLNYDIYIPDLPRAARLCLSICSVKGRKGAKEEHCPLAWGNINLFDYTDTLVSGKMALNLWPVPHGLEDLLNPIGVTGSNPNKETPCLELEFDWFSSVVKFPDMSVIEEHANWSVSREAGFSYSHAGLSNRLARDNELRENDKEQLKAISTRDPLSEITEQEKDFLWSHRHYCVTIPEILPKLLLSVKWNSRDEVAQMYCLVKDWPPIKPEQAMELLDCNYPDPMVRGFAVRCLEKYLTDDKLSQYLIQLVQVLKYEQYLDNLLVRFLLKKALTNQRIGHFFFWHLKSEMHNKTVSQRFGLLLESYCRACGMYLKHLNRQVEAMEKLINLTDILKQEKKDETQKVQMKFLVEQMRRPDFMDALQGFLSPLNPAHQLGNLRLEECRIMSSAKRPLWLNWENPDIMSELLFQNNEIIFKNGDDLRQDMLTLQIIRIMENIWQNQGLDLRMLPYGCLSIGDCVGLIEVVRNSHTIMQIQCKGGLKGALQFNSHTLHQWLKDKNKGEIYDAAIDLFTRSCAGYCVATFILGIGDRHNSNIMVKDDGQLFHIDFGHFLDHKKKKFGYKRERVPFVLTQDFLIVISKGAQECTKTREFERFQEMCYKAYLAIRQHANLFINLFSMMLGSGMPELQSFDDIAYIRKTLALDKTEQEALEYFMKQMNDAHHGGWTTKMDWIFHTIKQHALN
Chain of PI3Kα (P27986 whole entry partner, species assumed): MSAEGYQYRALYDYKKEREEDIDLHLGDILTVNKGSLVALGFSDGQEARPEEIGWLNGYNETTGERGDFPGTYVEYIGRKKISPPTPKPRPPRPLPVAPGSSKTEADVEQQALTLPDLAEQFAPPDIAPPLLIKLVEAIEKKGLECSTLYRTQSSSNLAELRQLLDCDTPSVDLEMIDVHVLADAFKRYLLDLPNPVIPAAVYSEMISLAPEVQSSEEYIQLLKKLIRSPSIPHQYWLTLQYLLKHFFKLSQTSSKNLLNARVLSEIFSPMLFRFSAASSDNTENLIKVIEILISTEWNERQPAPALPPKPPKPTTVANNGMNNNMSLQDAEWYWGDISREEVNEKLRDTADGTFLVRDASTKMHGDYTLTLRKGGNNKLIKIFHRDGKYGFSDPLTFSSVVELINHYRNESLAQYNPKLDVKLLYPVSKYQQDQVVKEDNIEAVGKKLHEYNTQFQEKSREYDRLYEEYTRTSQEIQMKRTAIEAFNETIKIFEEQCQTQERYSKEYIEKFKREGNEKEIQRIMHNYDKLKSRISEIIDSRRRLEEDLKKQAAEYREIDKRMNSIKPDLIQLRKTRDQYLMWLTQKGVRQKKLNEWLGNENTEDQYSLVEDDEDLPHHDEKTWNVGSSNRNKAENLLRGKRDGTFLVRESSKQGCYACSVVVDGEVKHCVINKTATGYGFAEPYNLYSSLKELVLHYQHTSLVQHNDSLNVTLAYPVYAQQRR

Chain of PI3Kγ (P48736 whole entry, species assumed): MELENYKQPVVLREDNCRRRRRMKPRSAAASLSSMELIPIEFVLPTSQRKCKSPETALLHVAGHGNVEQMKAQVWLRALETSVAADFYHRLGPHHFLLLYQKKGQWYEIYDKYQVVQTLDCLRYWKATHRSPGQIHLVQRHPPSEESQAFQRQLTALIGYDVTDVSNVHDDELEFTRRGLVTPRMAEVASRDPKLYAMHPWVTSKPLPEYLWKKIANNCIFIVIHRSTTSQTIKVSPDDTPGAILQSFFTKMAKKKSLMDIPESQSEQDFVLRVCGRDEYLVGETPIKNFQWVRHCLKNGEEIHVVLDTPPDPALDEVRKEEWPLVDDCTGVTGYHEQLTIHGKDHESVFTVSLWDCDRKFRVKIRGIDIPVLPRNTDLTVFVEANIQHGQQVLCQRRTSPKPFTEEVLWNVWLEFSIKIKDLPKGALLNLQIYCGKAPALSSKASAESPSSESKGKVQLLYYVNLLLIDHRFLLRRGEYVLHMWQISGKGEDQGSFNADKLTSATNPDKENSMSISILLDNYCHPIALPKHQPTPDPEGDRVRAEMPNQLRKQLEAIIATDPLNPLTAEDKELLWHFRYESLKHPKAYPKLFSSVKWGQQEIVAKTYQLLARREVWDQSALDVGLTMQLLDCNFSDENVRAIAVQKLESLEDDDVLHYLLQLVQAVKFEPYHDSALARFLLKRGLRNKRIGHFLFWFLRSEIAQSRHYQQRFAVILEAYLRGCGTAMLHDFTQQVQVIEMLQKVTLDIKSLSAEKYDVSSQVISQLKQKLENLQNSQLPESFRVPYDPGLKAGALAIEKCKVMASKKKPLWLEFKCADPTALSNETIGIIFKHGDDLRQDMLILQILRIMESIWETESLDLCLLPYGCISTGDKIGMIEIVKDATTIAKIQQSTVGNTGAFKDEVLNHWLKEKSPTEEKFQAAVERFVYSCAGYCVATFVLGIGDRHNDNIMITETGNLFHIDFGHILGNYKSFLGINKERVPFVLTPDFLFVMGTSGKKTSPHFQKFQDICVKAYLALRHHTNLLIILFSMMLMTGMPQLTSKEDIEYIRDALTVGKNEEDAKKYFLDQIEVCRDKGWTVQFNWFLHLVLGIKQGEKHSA

| SMILES | IC50 [1] [nM] | IC50 [2] [nM] | IC50 [3] [nM] |
| --- | --- | --- | --- |
| COc1ccc(-c2ccnc3c2c(/C=C2\Oc4cc(O)cc(O)c4C2=O)cn3C)cc1S(=O)(=O)N1CCOCC1 [Compound 88, (2Z)-4,6-dihydroxy-2-({4-[4-methoxy-3-(morpholin-4-ylsulfonyl)phenyl]-1-methyl-1H-pyrrolo[2,3-b]pyridin-3-yl}methylene)-1-benzofuran-3(2H)-one] | 27 | 0.2 | 8 |
| CN1CCN(c2ccc(-c3ccnc4c3c(/C=C3\Oc5cc(O)cc(O)c5C3=O)cn4C)cc2)CC1 [Compound 56, (2Z)-4,6-dihydroxy-2-({1-methyl-4-[4-(4-methylpiperazin-1-yl)phenyl]-1H-pyrrolo[2,3-b]pyridin-3-yl}methylene)-1-benzofuran-3(2H)-one] | 581 | 1.9 | 79 |
| CN1CCN(c2ccc(-c3ccnc4c3c(/C=C3\Oc5cccc(O)c5C3=O)cn4C)cc2)CC1 [Compound 57, (2Z)-4-hydroxy-2-({1-methyl-4-[4-(4-methylpiperazin-1-yl)phenyl]-1H-pyrrolo[2,3-b]pyridin-3-yl}methylene)-1-benzofuran-3(2H)-one] | 148 | 11.4 | 147 |
| COc1ccc2[nH]cc(/C=C3\Oc4cc(O)cc(O)c4C3=O)c2n1 [Compound 26, (2Z)-4,6-dihydroxy-2-[(5-methoxy-1H-pyrrolo[3,2-b]pyridin-3-yl)methylene]-1-benzofuran-3(2H)-one] | 1580 | > 4000 | 233 |
| CN(C(=O)C1CCN(c2ccnc3c2c(C=C2Oc4ccc(NC(=O)Nc5cccnc5)cc4C2=O)cn3C)CC1)C1CCS(=O)(=O)C1 (stereo not drawn) [Compound 211, N-(1,1-dioxidotetrahydrothiophen-3-yl)-N-methyl-1-[1-methyl-3-({3-oxo-5-[(pyridin-3-ylcarbamoyl)amino]-1-benzofuran-2(3H)-ylidene}methyl)-1H-pyrrolo[2,3-b]pyridin-4-yl]piperidine-4-carboxamide] | > 10000 | 11.5 | > 10000 |
| Cn1cc(C=C2Oc3ccc(NC(=O)Nc4cccnc4)cc3C2=O)c2c(N3CCC(C(=O)N[C@@H]4CCNC4)CC3)ccnc21 [Compound 207, 1-[1-methyl-3-({3-oxo-5-[(pyridin-3-ylcarbamoyl)amino]-1-benzofuran-2(3H)-ylidene}methyl)-1H-pyrrolo[2,3-b]pyridin-4-yl]-N-[(3R)-pyrrolidin-3-yl]piperidine-4-carboxamide] | 4290 | 16 | ≥ 10000 |
| Cn1cc(/C=C2\Oc3ccc(NC(=O)Nc4cccnc4)cc3C2=O)c2c(N3CCC(C(=O)N4CC5CCC4CO5)CC3)ccnc21 (stereo not drawn) [Compound 233, 1-[(2Z)-2-({1-methyl-4-[4-(2-oxa-5-azabicyclo[2.2.2]oct-5-ylcarbonyl)piperidin-1-yl]-1H-pyrrolo[2,3-b]pyridin-3-yl}methylidene)-3-oxo-2,3-dihydro-1-benzofuran-5-yl]-3-pyridin-3-ylurea] | 1730 | 38 | 196 |
| Cn1cc(/C=C2\Oc3cccc(O)c3C2=O)c2c(-c3ccc(F)c(C(=O)Nc4ccccc4)c3)ccnc21 [Compound 137, 2-fluoro-5-{3-[(Z)-(4-hydroxy-3-oxo-1-benzofuran-2(3H)-ylidene)methyl]-1-methyl-1H-pyrrolo[2,3-b]pyridin-4-yl}-N-phenylbenzamide] | 256 | 4.9 | 122 |
| Cn1cc(/C=C2\Oc3cccc(O)c3C2=O)c2c(-c3cccc(O)c3)ccnc21 [Compound 125, (2Z)-4-hydroxy-2-{[4-(3-hydroxyphenyl)-1-methyl-1H-pyrrolo[2,3-b]pyridin-3-yl]methylene}-1-benzofuran-3(2H)-one] | 93 | 13 | 43 |
| CN1CCN(C(=O)c2ccc(-c3ccnc4c3c(/C=C3\Oc5cccc(O)c5C3=O)cn4C)cc2)CC1 [Compound 124, (2Z)-4-hydroxy-2-[(1-methyl-4-{4-[(4-methylpiperazin-1-yl)carbonyl]phenyl}-1H-pyrrolo[2,3-b]pyridin-3-yl)methylene]-1-benzofuran-3(2H)-one] | 184 | 1 | 70 |
| CN1CCC(N(C)C(=O)C2CCN(c3ccnc4c3c(C=C3Oc5ccc(NC(=O)Nc6cccnc6)cc5C3=O)cn4C)CC2)C1 (stereo not drawn) [Compound 205, N-methyl-1-[1-methyl-3-({3-oxo-5-[(pyridin-3-ylcarbamoyl)amino]-1-benzofuran-2(3H)-ylidene}methyl)-1H-pyrrolo[2,3-b]pyridin-4-yl]-N-(1-methylpyrrolidin-3-yl)piperidine-4-carboxamide] | 9230 | 49 | > 10000 |
| Cn1cc(C=C2Oc3ccc(NC(=O)Nc4cccnc4)cc3C2=O)c2c(N3CCC(C(=O)N[C@H]4CCNC4)CC3)ccnc21 [Compound 209, 1-[1-methyl-3-({3-oxo-5-[(pyridin-3-ylcarbamoyl)amino]-1-benzofuran-2(3H)-ylidene}methyl)-1H-pyrrolo[2,3-b]pyridin-4-yl]-N-[(3S)-pyrrolidin-3-yl]piperidine-4-carboxamide] | 4160 | 26.5 | > 10000 |
| Cn1cc(/C=C2\Oc3cccc(O)c3C2=O)c2c(-c3ccc(C(=O)N4CCCC4)cc3)ccnc21 [Compound 91, (2Z)-4-hydroxy-2-({1-methyl-4-[4-(pyrrolidin-1-ylcarbonyl)phenyl]-1H-pyrrolo[2,3-b]pyridin-3-yl}methylene)-1-benzofuran-3(2H)-one] | 74 | 0.7 | 36 |
| CCn1cc(/C=C2\Oc3ccc(NC(=O)Nc4cccnc4)cc3C2=O)c2c(-c3ccc(C(=O)N4CCN(CCO)CC4)cc3)ccnc21 [Compound 177, 1-[(2Z)-2-{[1-ethyl-4-(4-{[4-(2-hydroxyethyl)piperazin-1-yl]carbonyl}phenyl)-1H-pyrrolo[2,3-b]pyridin-3-yl]methylidene}-3-oxo-2,3-dihydro-1-benzofuran-5-yl]-3-pyridin-3-ylurea] | 2360 | 66 | 2690 |
| CN1CCOc2cc(-c3ccnc4c3c(/C=C3\Oc5cccc(O)c5C3=O)cn4C)ccc21 [Compound 126, (2Z)-4-hydroxy-2-{[1-methyl-4-(4-methyl-3,4-dihydro-2H-1,4-benzoxazin-7-yl)-1H-pyrrolo[2,3-b]pyridin-3-yl]methylene}-1-benzofuran-3(2H)-one] | 8640 | 6.2 | 802 |
| CN(Cc1ccccc1)C(=O)C1CCN(c2ccnc3c2c(C=C2Oc4ccc(NC(=O)Nc5cccnc5)cc4C2=O)cn3C)CC1 [Compound 215, N-benzyl-N-methyl-1-[1-methyl-3-({3-oxo-5-[(pyridin-3-ylcarbamoyl)amino]-1-benzofuran-2(3H)-ylidene}methyl)-1H-pyrrolo[2,3-b]pyridin-4-yl]piperidine-4-carboxamide] | 9280 | 102 | > 10000 |
| Cn1cc(/C=C2\Oc3ccc(NC(=O)Nc4ccc(CN5CCCCC5)cc4)cc3C2=O)c2c(N3CC4CCC(C3)O4)ccnc21 [Compound 278, 1-[(2Z)-2-{[1-methyl-4-(8-oxa-3-azabicyclo[3.2.1]oct-3-yl)-1H-pyrrolo[2,3-b]pyridin-3-yl]methylidene}-3-oxo-2,3-dihydro-1-benzofuran-5-yl]-3-[4-(piperidin-1-ylmethyl)phenyl]urea] | 450 | 23 | 743 |
| CCn1cc(/C=C2\Oc3cccc(O)c3C2=O)c2c(-c3ccccc3)ccnc21 [Compound 116, (2Z)-2-[(1-ethyl-4-phenyl-1H-pyrrolo[2,3-b]pyridin-3-yl)methylene]-4-hydroxy-1-benzofuran-3(2H)-one] | > 10000 | 23 | 8490 |
| CN(C)CCOc1ccc(NC(=O)Nc2ccc3c(c2)C(=O)/C(=C/c2cn(C)c4nccc(N5CC6CCC(C5)O6)c24)O3)cc1 [Compound 220, 1-{4-[2-(dimethylamino)ethoxy]phenyl}-3-[(2Z)-2-{[1-methyl-4-(8-oxa-3-azabicyclo[3.2.1]oct-3-yl)-1H-pyrrolo[2,3-b]pyridin-3-yl]methylidene}-3-oxo-2,3-dihydro-1-benzofuran-5-yl]urea] | > 10000 | 62.5 | 915 |
| Cn1cc(/C=C2\Oc3cccc(O)c3C2=O)c2c(-c3ccc(C(=O)N4CCN(CCO)CC4)cc3)ccnc21 [Compound 146, (2Z)-4-hydroxy-2-{[4-(4-{[4-(2-hydroxyethyl)piperazin-1-yl]carbonyl}phenyl)-1-methyl-1H-pyrrolo[2,3-b]pyridin-3-yl]methylidene}-1-benzofuran-3(2H)-one] | 101 | 0.4 | 100 |
| Cn1cc(/C=C2\Oc3cccc(O)c3C2=O)c2c(-c3ccc(N4CCOCC4)nc3)ccnc21 [Compound 69, (2Z)-4-hydroxy-2-{[1-methyl-4-(6-morpholin-4-ylpyridin-3-yl)-1H-pyrrolo[2,3-b]pyridin-3-yl]methylene}-1-benzofuran-3(2H)-one] | 281 | 24.8 | 64 |
| CN(CCO)C(=O)c1ccc(-c2ccnc3c2c(/C=C2\Oc4cccc(O)c4C2=O)cn3C)cc1 [Compound 195, N-(2-hydroxyethyl)-4-{3-[(Z)-(4-hydroxy-3-oxo-1-benzofuran-2(3H)-ylidene)methyl]-1-methyl-1H-pyrrolo[2,3-b]pyridin-4-yl}-N-methylbenzamide] | 234 | 4.3 | 140 |
| Cn1cc(/C=C2\Oc3cccc(O)c3C2=O)c2c(-c3ccc(N4CCCC4)cc3)ccnc21 [Compound 143, (2Z)-4-hydroxy-2-{[1-methyl-4-(4-pyrrolidin-1-ylphenyl)-1H-pyrrolo[2,3-b]pyridin-3-yl]methylidene}-1-benzofuran-3(2H)-one] | > 10000 | 80.5 | 1320 |
